The record followed here is patent publication US20050282755A1, “Compositions having antimicrobial activity and uses thereof” (priority 2004, published 2005).

What all share (type): cell-based
Test [1] concerns Candida albicans ATCC 18804. As to the kind of experiment: MIC in yeasts, NCCLS M27-A2 broth microdilution, RPMI 1640 (Table 9, letter e). As to conditions: ATCC 18804. The procedure:
Briefly, RPMI 1640 supplemented with glutamine and phenol red as a pH indicator was used in the broth microdilution method. A 96-well plate was inoculated so that the final inoculum of yeast for each well contained between 0.5×10^3 and 2.5×10^3 CFU/milliliter. […] Plates were incubated for 24 to 48 hours at 37° C. The lowest concentration of peptide that contained no visible growth was determined as the MIC. MIC values that utilized this method of MIC determination are indicated in Table 9 with a subscript letter “e.” “Peptide Number” corresponds to peptide compositions and corresponding designations in Table 3.

In test [2] the test system is Staphylococcus aureus ATCC 29213. As to the kind of experiment: MIC, NCCLS M7-A6 broth microdilution, cation-adjusted Mueller Hinton broth (Table 9, no superscript). As to conditions: ATCC 29213. In a few lines: (§1)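 Broth microdilution in cation-adjusted Mueller Hinton broth, log-phase inoculum giving 5×10^5 to 1×10^6 CFU/milliliter per well. Overnight incubation at 37° C. MIC taken as lowest peptide concentration with no visible turbidity versus a no-peptide control.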
Background: In broth dilution the organism is exposed to a series of concentrations in liquid medium.

For test [3], the system named is Staphylococcus epidermidis ATCC 12228. As to the kind of experiment: MIC, NCCLS M7-A6 broth microdilution (Table 9, no superscript). As to conditions: ATCC 12228. Summed up: as §1
Test [4] has as its system Pseudomonas aeruginosa ATCC 27853. Described as above. As to conditions: ATCC 27853. In a few lines:
as §1

Test [5] has as its system Escherichia coli ATCC 25922. The test is described as above. As to conditions: ATCC 25922. In a few lines:
as §1

Test [6] relates to Salmonella dublin (Lane). The test is described as above. Summed up: as §1
Test [7] has as its system Propionibacterium acnes ATCC 6919. Description: MIC, agar dilution method NCCLS M11-A6, Brucella agar, anaerobic (Table 9, superscript c). As to conditions: ATCC 6919. In a few lines: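 Agar dilution per NCCLS M11-A6 on Brucella agar; final inoculum 1.5×10^8 CFU/milliliter applied to plates, incubated 48-96 hours at 37° C. under anaerobic (GasPak) conditions. MIC = lowest peptide concentration with no colony growth.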
(Agar dilution tests growth on a series of plates holding different concentrations.)

≈ marks a conversion by molar mass, not a printed value. Non-standard residues stand in square brackets, D forms with d. Residues, ends and D or L forms follow the SMILES beside them. *: point of attachment. Lauroyl = CCCCCCCCCCCC(=O)*; Octanoyl = CCCCCCCC(=O)*

On to `CCCCCCCCCCCC(=O)NCCCC[C@@H](NC(=O)[C@@H](CCCNC(=N)N)NC(=O)[C@@H](CCSC)NC(=O)[C@@H](Cc1ccccc1)NC(=O)[C@@H](CC(N)=O)NC(=O)[C@@H](CCCNC(=N)N)NC(=O)[C@@H](C)NC(=O)[C@H](NC(=O)[C@@H](CC(=O)O)NC(=O)[C@@H](CCCNC(=N)N)NC(=O)[C@@H](Cc1c[nH]c2ccccc12)NC(=O)[C@@H](CCCNC(=N)N)NC(=O)[C@@H](CO)NC(=O)[C@H](N)CCCNC(=N)N)C(C)C)C(N)=O` [Peptide 200, H2N-rsrwrdvarnfmrk(Lauryl)-NH2] (H-[dR][dS][dR][dW][dR][dD][dV][dA][dR][dN][dF][dM][dR][dK](Lauroyl)-NH2), for which, in test [1], the “MIC C. albicans” value worked out at 8e ug/mL. In addition, the “MIC S. aureus” value in test [2] worked out at 2 µg/mL (≈ 0.971 µM). Further, the “MIC S. epidermidis” value in test [3] is 1 µg/mL (≈ 0.486 µM). In addition, the “MIC P. aeruginosa” value in test [4] came out at 4 µg/mL (≈ 1.94 µM). Besides, the “MIC E. coli” value in test [5] was 4 µg/mL (≈ 1.94 µM). The “MIC S. dublin” value in test [6] is 8 µg/mL (≈ 3.88 µM). The “MIC P. acnes” value in test [7] is 8c ug/mL.

`CCCCCCCCCCCC(=O)N[C@@H](CCCNC(=N)N)C(=O)N[C@@H](CO)C(=O)N[C@@H](CCCNC(=N)N)C(=O)N[C@@H](Cc1c[nH]c2ccccc12)C(=O)N[C@@H](CCCNC(=N)N)C(=O)N[C@@H](CC(=O)O)C(=O)N[C@@H](Cc1c[nH]c2ccccc12)C(=O)N[C@@H](C)C(=O)N[C@@H](CCCNC(=N)N)C(=O)N[C@@H](CC(N)=O)C(=O)N[C@@H](Cc1c[nH]c2ccccc12)C(=O)N[C@@H](CCSC)C(=O)N[C@@H](CCCNC(=N)N)C(N)=O` [Peptide 143, Lauryl-RSRWRDWARNWMR-NH2] (Lauroyl-RSRWRDWARNWMR-NH2): the “MIC C. albicans” value in test [1] is listed as 4e ug/mL. The “MIC S. aureus” value in test [2] was 4 µg/mL (≈ 1.94 µM). The “MIC S. epidermidis” value in test [3] was determined as 2 µg/mL (≈ 0.972 µM). For the same molecule, the “MIC P. aeruginosa” value in test [4] is 16 µg/mL (≈ 7.78 µM). The “MIC E. coli” value in test [5] is 4 µg/mL (≈ 1.94 µM). The “MIC S. dublin” value in test [6] came out at 4 µg/mL (≈ 1.94 µM). The “MIC P. acnes” value in test [7] was found to be 2c ug/mL.

As for `CCCCCCCCCCCC(=O)N[C@H](CCCNC(=N)N)C(=O)N[C@H](CO)C(=O)N[C@H](CCCNC(=N)N)C(=O)N[C@H](Cc1c[nH]c2ccccc12)C(=O)N[C@H](C)C(=O)N[C@H](CC(=O)O)C(=O)N[C@@H](C(=O)N[C@H](C)C(=O)N[C@H](CCCNC(=N)N)C(=O)N[C@H](CC(N)=O)C(=O)N[C@H](Cc1ccccc1)C(=O)N[C@H](CCSC)C(=O)N[C@H](CCCNC(=N)N)C(N)=O)C(C)C` [Peptide 240, Lauryl-rsrwadvarnfmr-NH2] (Lauroyl-[dR][dS][dR][dW][dA][dD][dV][dA][dR][dN][dF][dM][dR]-NH2), the “MIC C. albicans” value in test [1] was 16e ug/mL. For the same molecule, the “MIC S. aureus” value in test [2] came to 2 µg/mL (≈ 1.08 µM). The “MIC S. epidermidis” value in test [3] stood at 2 µg/mL (≈ 1.08 µM). The “MIC P. aeruginosa” value in test [4] stood at 16 µg/mL (≈ 8.67 µM). In test [5], the “MIC E. coli” value worked out at 4 µg/mL (≈ 2.17 µM). Besides, the “MIC S. dublin” value in test [6] was determined as 4 µg/mL (≈ 2.17 µM). Besides, the “MIC P. acnes” value in test [7] is recorded as 16c ug/mL.

For `CCCCCCCC(=O)N[C@H](CCCNC(=N)N)C(=O)N[C@H](CO)C(=O)N[C@H](CCCNC(=N)N)C(=O)N[C@H](Cc1c[nH]c2ccccc12)C(=O)N[C@H](CCCNC(=N)N)C(=O)N[C@H](CC(=O)O)C(=O)N[C@@H](C(=O)N[C@H](C)C(=O)N[C@H](CCCNC(=N)N)C(=O)N[C@H](CC(N)=O)C(=O)N[C@H](Cc1ccccc1)C(=O)N[C@H](CC(C)C)C(=O)N[C@H](CCCNC(=N)N)C(N)=O)C(C)C` [Peptide 252, Octyl-rsrwrdvarnflr-NH2] (Octanoyl-[dR][dS][dR][dW][dR][dD][dV][dA][dR][dN][dF][dL][dR]-NH2), the “MIC C. albicans” value in test [1] was 64e ug/mL. Also, the “MIC S. aureus” value in test [2] came to 16 µg/mL (≈ 8.62 µM). In addition, the “MIC S. epidermidis” value in test [3] was found to be 2 µg/mL (≈ 1.08 µM). Also, the “MIC P. aeruginosa” value in test [4] came to 16 µg/mL (≈ 8.62 µM). The “MIC E. coli” value in test [5] was determined as 16 µg/mL (≈ 8.62 µM). Moreover, in test [6], the “MIC S. dublin” value is 64 µg/mL (≈ 34.5 µM). In test [7], the “MIC P. acnes” value came out at 16c ug/mL.

In the case of `CCCCCCCC(=O)NCCCC[C@@H](NC(=O)[C@@H](CCCNC(=N)N)NC(=O)[C@@H](CC(C)C)NC(=O)[C@@H](Cc1ccccc1)NC(=O)[C@@H](CC(N)=O)NC(=O)[C@@H](CCCNC(=N)N)NC(=O)[C@@H](C)NC(=O)[C@H](NC(=O)[C@@H](CC(=O)O)NC(=O)[C@@H](CCCNC(=N)N)NC(=O)[C@@H](Cc1c[nH]c2ccccc12)NC(=O)[C@@H](CCCNC(=N)N)NC(=O)[C@@H](CO)NC(=O)[C@H](N)CCCNC(=N)N)C(C)C)C(N)=O` [Peptide 193, H2N-rsrwrdvarnflrk(Octanyl)-NH2] (H-[dR][dS][dR][dW][dR][dD][dV][dA][dR][dN][dF][dL][dR][dK](Octanoyl)-NH2), the “MIC C. albicans” value in test [1] is recorded as 32e ug/mL. Moreover, in test [2], the “MIC S. aureus” value was 16 µg/mL (≈ 8.06 µM). The “MIC S. epidermidis” value in test [3] turned out to be 2 µg/mL (≈ 1.01 µM). Besides, the “MIC P. aeruginosa” value in test [4] is 16 µg/mL (≈ 8.06 µM). Besides, the “MIC E. coli” value in test [5] was 8 µg/mL (≈ 4.03 µM). In addition, in test [6], the “MIC S. dublin” value is 16 µg/mL (≈ 8.06 µM). Besides, the “MIC P. acnes” value in test [7] is on record as 8c ug/mL.

On to `CSCC[C@H](NC(=O)[C@H](Cc1ccccc1)NC(=O)[C@H](CC(N)=O)NC(=O)[C@H](CCCNC(=N)N)NC(=O)[C@H](CO)NC(=O)[C@H](Cc1c[nH]c2ccccc12)NC(=O)[C@H](CC(=O)O)NC(=O)[C@H](CCCNC(=N)N)NC(=O)[C@H](Cc1c[nH]c2ccccc12)NC(=O)[C@H](CCCNC(=N)N)NC(=O)[C@H](CO)NC(=O)[C@H](CCCNC(=N)N)NC(=O)CNC(=O)[C@@H](NC(=O)[C@H](CCCNC(=N)N)NC(=O)[C@H](CO)NC(=O)[C@@H](NC(=O)[C@H](CCCNC(=N)N)NC(=O)[C@@H](NC(=O)[C@H](C)NC(=O)[C@H](C)NC(=O)[C@H](CCCNC(=N)N)NC(=O)[C@H](CCCNC(=N)N)NC(=O)[C@H](CCCNC(=N)N)NC(=O)[C@@H](N)CCCNC(=N)N)[C@@H](C)O)C(C)C)[C@@H](C)O)C(=O)N[C@@H](CCCNC(=N)N)C(=O)N[C@@H](C)C(=O)N[C@@H](C)C(=O)N[C@@H](CCCNC(=N)N)C(=O)N[C@@H](CCCNC(=N)N)C(=O)N[C@@H](CCCNC(=N)N)C(=O)N[C@@H](CCCNC(=N)N)C(N)=O` [Peptide 12] (H-RRRRAATRVSRTGRSRWRDWSRNFMRAARRRR-NH2), for which the “MIC C. albicans” value in test [1] was greater than 64e ug/mL. Moreover, the “MIC S. aureus” value in test [2] is 16 µg/mL (≈ 3.86 µM). The “MIC S. dublin” value in test [6] was determined as 32 µg/mL (≈ 7.72 µM). In test [7], the “MIC P. acnes” value was greater than 64c ug/mL.

As for `CCCCCCCCCCCC(=O)N[C@@H](CCCNC(=N)N)C(=O)N[C@@H](CO)C(=O)N[C@@H](CCCNC(=N)N)C(=O)N[C@@H](Cc1c[nH]c2ccccc12)C(=O)N[C@@H](CCCNC(=N)N)C(=O)N[C@@H](CC(=O)O)C(=O)N[C@@H](Cc1c[nH]c2ccccc12)C(=O)N[C@@H](CO)C(=O)N[C@@H](CCCNC(=N)N)C(=O)N[C@@H](CC(N)=O)C(=O)N[C@@H](Cc1ccccc1)C(=O)N[C@@H](CCSC)C(=O)N[C@@H](CCCNC(=N)N)C(N)=O` [Peptide 87, Lauryl-RSRWRDWSRNFMR-NH2] (Lauroyl-RSRWRDWSRNFMR-NH2), the “MIC C. albicans” value in test [1] amounted to 16e ug/mL. Besides, the “MIC S. aureus” value in test [2] came to 4 µg/mL (≈ 1.97 µM). Also, in test [6], the “MIC S. dublin” value stood at 8 µg/mL (≈ 3.93 µM). For the same molecule, in test [7], the “MIC P. acnes” value is on record as greater than 64c ug/mL.
